Source: patent publication US7144894B2, “Sulfonamide bicyclic compounds” (Bristol-Myers Squibb Company, priority 2004, dated 2006)
Like-named read-outs stand apart in the source and are kept apart here.

Columns and labels:
HPLC log P = assay type: physicochemical; conditions: pH 7.0
[1] = tested on: β-amyloid peptide formation; assay: Inhibition of β-amyloid peptide formation in human H4 cells; assay type: cell-based; conditions: H4 cells stably transfected to overexpress HPLAP-APP fusion protein, 18 hrs incubation, Aβ in supernatant, read-out: Binding affinity (IC50 in nM)
Protocol: γ-Secretase inhibitors were also evaluated using in vitro assays based on the inhibition of Aβ formation in cultured cells. Cultured human cell lines, such as HEK293 and H4 cells, which express APP and γ-secretase activity or transfected derivative cell lines that overexpress wild-type APP, mutant APP, or APP fusion proteins will secrete Aβ peptides into the culture media that can be quantified as previously outlined (Dovey H. et al., J. Neurochem. 2001, 76, 173). The incubation of these cultured cells with γ-secretase inhibitors decreases the production of Aβ peptides. For instance, H4 cells stably transfected to overexpress the HPLAP-APP fusion protein described above were grown as above, detached, and adjusted to 2×10^5 cells/ml. 100 μl of the resulting suspension was then added to each well of a 96-well plate. After 4 hrs, the media was removed and replaced with 100 μl serum-free media containing various dilutions of the test compound. Plates were then incubated for 18 hrs at 37° C. and a 100 μl aliquot of the tissue culture supernatant was removed for determination of Aβ levels using time-resolved fluorescence of the homogenous sample as outlined above. The extent of Aβ inhibition was used to calculate the IC50 value for the test compound.
Representative compounds were evaluated in the above assay and were determined to inhibit Aβ formation.

Row | Structure (SMILES) | chromatographic logP (HPLC log P) | IC50 ([1]; Homo sapiens) | IC50 [1]
1 | CC(C)C[C@H](C(N)=O)N(Cc1ccc2[nH]ccc2c1)S(=O)(=O)c1ccc(Cl)cc1 [Example 2, 2R-(N-indol-5-ylmethyl-N-4-chlorophenylsulfonyl)amino-4-methyl-pentanamide] | 3.81 | 0.25 to 50 nM | 
2 | Cc1cc2cc(CN([C@H](CC(C)C)C(N)=O)S(=O)(=O)c3ccc(Cl)cc3)ccc2n1C(=O)OC(C)(C)C [Example 3, 2R-(N-(1-t-Butyloxycarbonyl-2-methylindol-5-ylmethyl)-N-4-chlorophenylsulfonyl)amino-4-methyl-pentanamide] |  | 0.25 to 50 nM | 
3 | Cc1cc2cc(CN([C@H](CC(C)C)C(N)=O)S(=O)(=O)c3ccc(Cl)cc3)ccc2[nH]1 [Example 4, 2R-(N-(2-methylindol-5-ylmethyl)-N-4-chlorophenylsulfonyl)amino-4-methyl-pentanamide] | 4.21 | 0.25 to 50 nM | 
4 | CC(C)C[C@H](C(N)=O)N(Cc1ccc2c(c1)CCNC2=O)S(=O)(=O)c1ccc(Cl)cc1 [Example 5, 2R-(N-(1-oxo-1,2,3,4-tetrahydroisoquinolin-6-ylmethyl)-N-4-chlorophenylsulfonyl)amino-4-methyl-pentanamide] |  | 0.25 to 50 nM | 
5 | CCN1CCc2cc(CN([C@H](CC(C)C)C(N)=O)S(=O)(=O)c3ccc(Cl)cc3)ccc2C1=O [Example 6, 2R-(N-(1-oxo-2-ethyl-1,2,3,4-tetrahydroisoquinolin-6-ylmethylamino)-N-4-chlorophenylsulfonyl)amino-4-methyl-pentanamide] |  | 0.25 to 50 nM | 
6 | CC(C)C[C@H](C(N)=O)N(Cc1ccc2c(c1)CCC(=O)N2)S(=O)(=O)c1ccc(Cl)cc1 [Example 7, 2R-(N-(2-oxo-1,2,3,4-tetrahydroquinolin-6-ylmethyl)-N-4-chlorophenylsulfonyl)amino-4-methyl-pentanamide] |  | 50 to 500 nM | 
7 | CC(C)C[C@H](C(N)=O)N(Cc1ccc2c(c1)CCN2)S(=O)(=O)c1ccc(Cl)cc1 [Example 9, 2R-(N-indolin-5-yl-N-4-chlorophenylsulfonyl)methylamino-4-methyl-pentanamide] |  | 0.25 to 50 nM | 
8 | CC(C)C[C@H](C(N)=O)N(Cc1ccc2c(c1)CCN2C)S(=O)(=O)c1ccc(Cl)cc1 [Example 10, 2R-(N-1-methylindolin-5-yl-N-4-chlorophenylsulfonyl)methylamino-4-methyl-pentanamide] |  | 0.25 to 50 nM | 
9 | CC(C)C[C@H](C(N)=O)N(Cc1ccc2c(c1)CCN2C(=O)C1CCCC1)S(=O)(=O)c1ccc(Cl)cc1 [Example 12, 2R-(N-1-cyclopentylcarbonylindolin-5-yl-N-4-chlorophenylsulfonyl)methylamino-4-methyl-pentanamide] |  | 0.25 to 50 nM | 
10 | CC(C)C[C@H](C(N)=O)N(Cc1ccc2c(c1)CCN(Cc1ccccn1)C2=O)S(=O)(=O)c1ccc(Cl)cc1 [Example 13, 2R-(N-(1-oxo-2-(2-pyridylmethyl)-1,2,3,4-tetrahydroisoquinolin-6-ylmethylamino)-N-4-chlorophenylsulonyl)amino-4-methyl-pentanamide] |  |  | 0.25 to 50 nM
11 | CC(C)C[C@H](C(N)=O)N(Cc1ccc2c(c1)CCN(C)C2=O)S(=O)(=O)c1ccc(Cl)cc1 [Example 14, 2R-(N-(1-oxo-2-methyl-1,2,3,4-tetrahydroisoquinolin-6-ylmethylamino)-N-4-chlorophenylsulfonyl)amino-4-methyl-pentanamide] |  |  | 0.25 to 50 nM
12 | CCCN1CCc2cc(CN([C@H](CC(C)C)C(N)=O)S(=O)(=O)c3ccc(Cl)cc3)ccc2C1=O [Example 15, 2R-(N-(1-oxo-2-propyl-1,2,3,4-tetrahydroisoquinolin-6-ylmethylamino)-N-4-chlorophenylsulfonyl)amino-4-methyl-pentanamide] |  |  | 0.25 to 50 nM
13 | CCCCN1CCc2cc(CN([C@H](CC(C)C)C(N)=O)S(=O)(=O)c3ccc(Cl)cc3)ccc2C1=O [Example 16, 2R-(N-(1-oxo-2-butyl-1,2,3,4-tetrahydroisoquinolin-6-ylmethylamino)-N-4-chlorophenylsulfonyl)amino-4-methyl-pentanamide] |  |  | 0.25 to 50 nM
14 | CC(C)C[C@H](C(N)=O)N(Cc1ccc2c(c1)CCN(Cc1ccccc1)C2=O)S(=O)(=O)c1ccc(Cl)cc1 [Example 17, 2R-(N-(1-oxo-2-benzyl-1,2,3,4-tetrahydroisoquinolin-6-ylmethylamino)-N-4-chlorophenylsulfonyl)amino-4-methyl-pentanamide] |  |  | 0.25 to 50 nM
15 | COCCN1CCc2cc(CN([C@H](CC(C)C)C(N)=O)S(=O)(=O)c3ccc(Cl)cc3)ccc2C1=O [Example 18, 2R-(N-(1-oxo-2-(2-methoxyethyl)-1,2,3,4-tetrahydroisoquinolin-6-ylmethylamino)-N-4-chlorophenylsulonyl)amino-4-methyl-pentanamide] |  |  | 0.25 to 50 nM
16 | CC(C)C[C@H](C(N)=O)N(Cc1ccc2c(c1)CCN(CC1CC1)C2=O)S(=O)(=O)c1ccc(Cl)cc1 [Example 19, 2R-(N-(1-oxo-2-cyclopropylmethyl-1,2,3,4-tetrahydroisoquinolin-6-ylmethylamino)-N-4-chlorophenylsulfonyl)amino-4-methyl-pentanamide] |  |  | 0.25 to 50 nM
17 | CC(C)C[C@H](C(N)=O)N(Cc1ccc2c(c1)CCN(CC1CCC1)C2=O)S(=O)(=O)c1ccc(Cl)cc1 [Example 20, 2R-(N-(1-oxo-2-cyclobutylmethyl-1,2,3,4-tetrahydroisoquinolin-6-ylmethylamino)-N-4-chlorophenylsulfonyl)amino-4-methyl-pentanamide] |  |  | 0.25 to 50 nM
18 | CCN1CCc2cc(CN([C@H](CC3CC3)C(N)=O)S(=O)(=O)c3ccc(Cl)cc3)ccc2C1=O [Example 21, 2R-(N-(1-oxo-2-ethyl-1,2,3,4-tetrahydroisoquinolin-6-ylmethylamino)-N-4-chlorophenylsulfonyl)amino-3-cyclopropyl-propanamide] |  | 0.25 to 50 nM | 
19 | CCN1CCc2cc(CN([C@H](CC(F)F)C(N)=O)S(=O)(=O)c3ccc(Cl)cc3)ccc2C1=O [Example 22, 2R-(N-(1-oxo-2-ethyl-1,2,3,4-tetrahydroisoquinolin-6-ylmethylamino)-N-4-chlorophenylsulfonyl)amino-4,4-difluorobutanamide] |  | 0.25 to 50 nM | 
20 | CC(C)N1CCc2cc(CN([C@H](CC3CC3)C(N)=O)S(=O)(=O)c3ccc(Cl)cc3)ccc2C1=O [Example 23, 2R-(N-(1-oxo-2-(2-propyl)-1,2,3,4-tetrahydroisoquinolin-6-ylmethylamino)-N-4-chlorophenylsulfonyl)amino-3-cyclopropyl-propanamide] |  |  | 0.25 to 50 nM
21 | CCC(CC)N1CCc2cc(CN([C@H](CC3CC3)C(N)=O)S(=O)(=O)c3ccc(Cl)cc3)ccc2C1=O [Example 24, 2R-(N-(1-oxo-2-(3-pentyl)-1,2,3,4-tetrahydroisoquinolin-6-ylmethylamino)-N-4-chlorophenylsulfonyl)amino-3-cyclopropyl-propanamide] |  |  | 0.25 to 50 nM
